Test results published in patent US8993565B2, “(6-oxo-1,6-dihydropyrimidin-2-yl)amide derivatives, preparation thereof and pharmaceutical use thereof as AKT(PKB) phosphorylation inhibitors” (Sanofi, priority 2009, dated 2015).

What follows are compounds tested on AKT protein phosphorylated on serine 473 (P-AKT-S473) (assay: Study of pAKT expression in PC3 human prostate carcinoma cells measured by the MSD Multi-spot Biomarker Detection technique (Test B)). Details: PC-3, inhibition of AKT phosphorylation (P-AKT-S473), MSD sandwich immunoassay, 1 to 2 h incubation, absolute IC50, mean of 2 experiments.
Format: cell-based
Experimental: The inhibitory activity of the molecules on AKT phosphorylation is measured either by western blotting using the technique described below, or by the MSD Multi-spot Biomarker detection technique from Meso Scale Discovery also described below.
Study of pAKT Expression in PC3 Human Prostate Carcinoma Cells Measured by the MSD Multi-Spot Biomarker Detection Technique from Meso Scale Discovery (Test B):
The primary antibody specific for P-AKT-S473 (Kit #K151CAD) is coated on to an electrode in each well of the 96-well plates of the MSD, kit: after the addition of a protein lysate to each well, the signal is visualised by adding a secondary detection antibody labelled with an electrochemoluminescent compound. The procedure followed is that described in the kit.
On day 2, the cells are incubated in the presence or absence of the test products for 1 to 2 h at 37° C. in the presence of 5% of CO2. The molecules, diluted in dimethyl sulphoxide (DMSO Sigma #D2650), are added from a 20-times concentrated stock solution, the final percentage of DMSO being 0.1%. The molecules are tested either at a single concentration of less than or equal to 10 μM, or at increasing concentrations in a range that can extend from less than 1 nM to 10 μM.
After this incubation, the cells are lysed for the preparation of the proteins. […] At this stage, the plates containing the lysates can be stored at −20° C. or at −80° C.
The wells of the 96-well plates of the MSD kit are saturated for 1 h at ambient temperature with the blocking solution of the MSD kit. Four washes are carried out with 150 μl of Tris Wash Buffer of the MSD kit. The lysates previously prepared are transferred into the 96-well multi-spot plates of the MSD kit and incubated for 1 h at ambient temperature, with shaking. Four washes are carried out with 150 μl of Tris Wash Buffer of the MSD kit. 25 μl of the MSD sulfo-tag detection antibody solution are added to the wells and incubated for 1 h at ambient temperature, with shaking. Four washes are carried out with 150 μl of Tris Wash Buffer of the MSD kit. 150 μl of Read Buffer of the MSD kit are added to the wells and the plates are read immediately on the S12400 instrument from Meso Scale Discovery.
The instrument measures a signal for each well. Wells without cells and containing the lysis buffer serve to determine the background noise that will be subtracted from all the measurements (min). The wells containing cells in the absence of product and in the presence of 0.1% DMSO are considered to be the 100% signal (max). The percentage inhibition is calculated for each concentration of test product according to the following formula: (1-((test-min)(max-min)))×100.
2 independent experiments make it possible to calculate the mean of the IC50 values.

Row | Structure (SMILES) | IC50 [µM]
1 | CN(C)c1cccc(NC(=O)Cc2nc(N3CCOCC3)cc(=O)[nH]2)c1 [Example 4, N-[3-(dimethylamino)phenyl]-2-[4-(morpholin-4-yl)-6-oxo-1,6-dihydropyrimidin-2-yl]acetamide] | 0.145
2 | O=C(Cc1nc(N2CCOCC2)cc(=O)[nH]1)Nc1ccc(F)cc1F [Example 5, N-(2,4-difluorophenyl)-2-[4-(morpholin-4-yl)-6-oxo-1,6-dihydropyrimidin-2-yl]acetamide] | 0.051
3 | O=C(Cc1nc(N2CCOCC2)cc(=O)[nH]1)Nc1ccsc1 [Example 7, 2-[4-(morpholin-4-yl)-6-oxo-1,6-dihydropyrimidin-2-yl]-N-(thiophen-3-yl)acetamide] | 0.023
4 | CC(C)(C)c1cccc(NC(=O)Cc2nc(N3CCOCC3)cc(=O)[nH]2)c1 [Example 19, N-[3-(2-methylpropan-2-yl)phenyl]-2-[4-(morpholin-4-yl)-6-oxo-1,6-dihydropyrimidin-2-yl]acetamide] | 0.042
5 | N#Cc1cc(NC(=O)Cc2nc(N3CCOCC3)cc(=O)[nH]2)ccc1F [Example 24, N-(3-cyano-4-fluorophenyl)-2-[4-(morpholin-4-yl)-6-oxo-1,6-dihydropyrimidin-2-yl]acetamide] | 0.247
6 | O=C(Cc1nc(N2CCOCC2)cc(=O)[nH]1)Nc1ccc(F)cn1 [Example 27, N-(5-fluoropyridin-2-yl)-2-[4-(morpholin-4-yl)-6-oxo-1,6-dihydropyrimidin-2-yl]acetamide] | 0.071
7 | O=C(Cc1nc(N2CCOCC2)cc(=O)[nH]1)Nc1cccnc1 [Example 30, 2-[4-(morpholin-4-yl)-6-oxo-1,6-dihydropyrimidin-2-yl]-N-(pyridin-3-yl)acetamide] | 1.03
8 | Cc1cc(F)ccc1NC(=O)Cc1nc(N2CCOCC2)cc(=O)[nH]1 [Example 31, N-(4-fluoro-2-methylphenyl)-2-[4-(morpholin-4-yl)-6-oxo-1,6-dihydropyrimidin-2-yl]acetamide] | 0.058
9 | O=C(Cc1nc(N2CCOCC2)cc(=O)[nH]1)Nc1cccc(OC2CCCC2)c1 [Example 49, N-[3-(cyclopentyloxy)phenyl]-2-[4-(morpholin-4-yl)-6-oxo-1,6-dihydropyrimidin-2-yl]acetamide] | 0.146
10 | O=C(Cc1nc(N2CCOCC2)cc(=O)[nH]1)Nc1ccc(F)c(F)c1F [Example 53, 2-[4-(morpholin-4-yl)-6-oxo-1,6-dihydropyrimidin-2-yl]-N-(2,3,4-trifluorophenyl)acetamide] | 0.066
11 | O=C(Cc1nc(N2CCOCC2)cc(=O)[nH]1)Nc1cc(F)c(F)cc1F [Example 60, 2-[4-(morpholin-4-yl)-6-oxo-1,6-dihydropyrimidin-2-yl]-N-(2,4,5-trifluorophenyl)acetamide] | 0.29
12 | O=C(Cc1nc(N2CCOCC2)cc(=O)[nH]1)Nc1cc(Cl)c(F)c(Cl)c1 [Example 61, N-(3,5-dichloro-4-fluorophenyl)-2-[4-(morpholin-4-yl)-6-oxo-1,6-dihydropyrimidin-2-yl]acetamide] | 0.077
13 | O=C(Cc1nc(N2CCOCC2)cc(=O)[nH]1)Nc1ccc(F)c(C(=O)O)c1 [Example 64, 2-fluoro-5-(([4-(morpholin-4-yl)-6-oxo-1,6-dihydropyrimidin-2-yl]acetyl)amino)benzoic acid] | 10
14 | O=C(Cc1nc(N2CCOCC2)cc(=O)[nH]1)Nc1ccc(F)cc1Br [Example 66, N-(2-bromo-4-fluorophenyl)-2-[4-(morpholin-4-yl)-6-oxo-1,6-dihydropyrimidin-2-yl]acetamide] | 0.131
15 | O=C(Cc1nc(N2CCOCC2)cc(=O)[nH]1)Nc1ccc(F)c(I)c1 [Example 74, N-(4-fluoro-3-iodophenyl)-2-[4-(morpholin-4-yl)-6-oxo-1,6-dihydropyrimidin-2-yl]acetamide] | 0.01
16 | O=C(Cc1nc(N2CCOCC2)cc(=O)[nH]1)Nc1ccc(F)c(C(F)F)c1 [Example 76] | 0.077
17 | O=C(Nc1ccc(F)cc1)C(F)(F)c1nc(N2CCOCC2)cc(=O)[nH]1 [Example 77, 2,2-difluoro-N-(4-fluorophenyl)-2-[4-(morpholin-4-yl)-6-oxo-1,6-dihydropyrimidin-2-yl]acetamide] | 0.698

Row | Structure (SMILES) | IC50 [µM]
18 | Cn1c(CC(=O)Nc2ccc(F)c(F)c2)nc(N2CCOCC2)cc1=O [Example 78, N-(3,4-difluorophenyl)-2-[1-methyl-4-(morpholin-4-yl)-6-oxo-1,6-dihydropyrimidin-2-yl]acetamide] | 0.129
19 | Cn1c(CC(=O)N2CCc3ccccc32)nc(N2CCOCC2)cc1=O [Example 79, 2-[2-(2,3-dihydro-1 H-indol-1-yl)-2-oxoethyl]-3-methyl-6-(morpholin-4-yl)pyrimidin-4(3 H)-one] | 0.02
20 | Cn1c(CC(=O)Nc2ccc(F)c(Br)c2)nc(N2CCOCC2)cc1=O [Example 80, N-(3-bromo-4-fluorophenyl)-2-[1-methyl-4-(morpholin-4-yl)-6-oxo-1,6-dihydropyrimidin-2-yl]acetamide] | 0.094
21 | Cn1c(CC(=O)Nc2ccc(F)c(CO)c2)nc(N2CCOCC2)cc1=O [Example 81, N-[4-fluoro-3-(hydroxymethyl)phenyl]-2-[1-methyl-4-(morpholin-4-yl)-6-oxo-1,6-dihydropyrimidin-2-yl]acetamide] | 1.94
22 | COc1cc(NC(=O)Cc2nc(N3CCOCC3)cc(=O)n2C)ccc1F [Example 83, N-(4-fluoro-3-methoxyphenyl)-2-[1-methyl-4-(morpholin-4-yl)-6-oxo-1,6-dihydropyrimidin-2-yl]acetamide] | 0.115
23 | O=C(Cc1nc(N2CCOCC2)cc(=O)[nH]1)Nc1cccc2occc12 [Example 84, N-(1-benzofur-4-yl)-2-[4-(morpholin-4-yl)-6-oxo-1,6-dihydropyrimidin-2-yl]acetamide] | 0.017
24 | Cn1c(CC(=O)Nc2ccccc2)nc(N2CCOCC2)cc1=O [Example 85, 2-[1-methyl-4-(morpholin-4-yl)-6-oxo-1,6-dihydropyrimidin-2-yl]-N-phenylacetamide] | 0.34
25 | O=C(Cc1nc(N2CCOCC2)cc(=O)[nH]1)Nc1cccc(F)c1O [Example 87, N-(3-fluoro-2-hydroxyphenyl)-2-[4-(morpholin-4-yl)-6-oxo-1,6-dihydropyrimidin-2-yl]acetamide] | 0.075
26 | O=C(Cc1nc(N2CCOCC2)cc(=O)[nH]1)N1CCc2c(Cl)cccc21 [Example 89, 2-[2-(4-chloro-2,3-dihydro-1 H-indol-1-yl)-2-oxoethyl]-6-(morpholin-4-yl)pyrimidin-4(3 H)-one] | 0.003
27 | C#Cc1cc(NC(=O)Cc2nc(N3CCOCC3)cc(=O)[nH]2)ccc1F [Example 90, N-(3-ethynyl-4-fluorophenyl)-2-[4-(morpholin-4-yl)-6-oxo-1,6-dihydropyrimidin-2-yl]acetamide] | 0.014
28 | O=C(Cc1nc(N2CCOCC2)cc(=O)[nH]1)N1CCc2c(O)cccc21 [Example 91, 2-[2-(4-hydroxy-2,3-dihydro-1H-indol-1-yl)-2-oxoethyl]-6-(morpholin-4-yl)pyrimidin-4(3H)-one] | 0.071
29 | O=C(Cc1nc(N2CCOCC2)cc(=O)[nH]1)N1CCc2c(F)cc(F)cc21 [Example 92, 2-[2-(4,6-difluoro-2,3-dihydro-1H-indol-1-yl)-2-oxoethyl]-6-(morpholin-4-yl)pyrimidin-4(3H)-one] | 0.057
30 | Cn1c(CC(=O)Nc2ccc(F)c(I)c2)nc(N2CCOCC2)cc1=O [Example 93, N-(3-iodo-4-fluorophenyl)-2-[1-methyl-4-(morpholin-4-yl)-6-oxo-1,6-dihydropyrimidin-2-yl]acetamide] | 0.063
31 | O=C(Cc1nc(N2CCOCC2)cc(=O)[nH]1)N1CCc2c1ccc(F)c2F [Example 94, 2-[2-(4,5-difluoro-2,3-dihydro-1H-indol-1-yl)-2-oxoethyl]-6-(morpholin-4-yl)pyrimidin-4(3H)-one] | 0.011
32 | O=C(Cc1nc(N2CCOCC2)cc(=O)[nH]1)N1CCc2ccc(F)cc21 [Example 95, 2-[2-(6-fluoro-2,3-dihydro-′1H-indol-1-yl)-2-oxoethyl]-6-(morpholin-4-yl)pyrimidin-4(3H)-one] | 0.035
33 | CC1Cc2ccccc2N1C(=O)Cc1nc(N2CCOCC2)cc(=O)[nH]1 (stereo not drawn) [Example 96, 2-[2-(2-methyl-2,3-dihydro-1H-indol-1-yl)-2-oxoethyl]-6-(morpholin-4-yl)pyrimidin-4(3H)-one] | 0.006
